Experimental data reported in ChEMBL document CHEMBL5729403, “Small molecule modulators of the BTB domain of Keap1” (2022).
pEC50: −log10 of the molar value.

Assay: HEK293 luciferase: Purpose of the AssayThe purpose of this assay is to identify small molecule inhibitors of Keap1, preventing Keap1 binding to Nrf2, and thus activating the Nrf2 signalling pathway in HEK-293 ARE firefly luciferase transiently transfected cells. HEK-293 cells express wild-type Keap1 protein and therefore have low constitutive levels of Nrf2 protein and Nrf2-dependent transcription. […] When Keap1 is inhibited, Nrf2 signalling is activated, and there is an increase in luciferase expression and light emission.Assay WorkflowCryopreserved HEK ARE luciferase cells were rapidly thawed in a 37° C. water bath and resuspended in assay culture medium (DMEM, 10% FCS, 2 mM L-glutamine). The cell suspension was pelleted by centrifugation ([…]; 300 g) using a Heraeus benchtop centrifuge. Supernatant was removed and the pellet was gently resuspended in 5 mL culture medium per vial. Cell viability and cell number was measured using an Invitrogen Countess automated cell counter (typical viability 80%), and cells were diluted to a density of 5.0×10^5 cells/mL.Cells were then plated out into white 384-well plates (Greiner 781080) using a Multidrop Combi, 20 μL/well, to give 10,000 cells/well. As appropriate, test compounds had been added to wells prior to dispensing cells using an Echo 555 acoustic dispenser (Labcyte). Plates were left at room temperature for ˜10 min to promote even cell settling across the plate before incubation for 18 h at 37° C., 95% humidity and 5% CO2.After 18 h incubation, plates were removed from the incubator and allowed to cool to room temperature for 30 min, before 10 μL per well SteadyGlo reagent detection reagent was added (as per manufacturer's instructions, 10 min before required 10 mL room temperature buffer was added to one vial of lyophilised substrate and inverted several times to fully dissolve). Plates were then incubated in the dark for 30 min before reading on an Envision plate reader.Preparation of Compounds for ScreeningCompounds were acoustically dispensed using a Labcyte Echo, using a 10 pt dose curve with a top concentration of 100 μM. Assay wells were backfilled with DMSO to a total of 60 nL to maintain 0.3% (v/v) DMSO through the assay.Data Analysis Software and Calculation of ResultsThe Stimulator signal was defined using 30 μM tert-butyl hydroquinone (tBHQ) and the Neutral signal by DMSO vehicle control. All calculations were performed using GeneData.

Compound	pEC50
CCc1cccc(C2(OC)C=C(C#N)C(=O)C(C)(C)C2)n1 (centres undefined)	< 4.52
COC1(c2cccc(-c3ccccc3)n2)C=C(C#N)C(=O)C(C)(C)C1 (centres undefined)	5.00
COC1(c2cccc(C)n2)C=C(C#N)C(=O)C(C)(C)C1 (centres undefined)	6.57
COC1(c2ccc(C)cc2)C=C(C#N)C(=O)C(C)(C)C1 (centres undefined)	6.51
